Target: T1, PI3Kα H1047R (T47D cells) (Homo sapiens, UniProt P42336, H1047R)
T1 construct: endogenous in cells; host or cells: T47D cells
Experiment: PI3Kα cellular assay: pAKT HTRF in T47D cells after EGF stimulation
Type: cell-based
Settings: for IC50: T47D cells (PI3Kα H1047R), pAKT S473 HTRF
Outline: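 T47D cells (PIK3CA H1047R) serum-starved 16 h, then treated 1 h at 37 °C with compound (10,000 nM top, 3-fold steps to 0.5 nM). After 10 min stimulation with 20 ng/mL EGF, cells were lysed and pAKT measured by HTRF.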

T1 sequence (P42336 whole entry H1047R): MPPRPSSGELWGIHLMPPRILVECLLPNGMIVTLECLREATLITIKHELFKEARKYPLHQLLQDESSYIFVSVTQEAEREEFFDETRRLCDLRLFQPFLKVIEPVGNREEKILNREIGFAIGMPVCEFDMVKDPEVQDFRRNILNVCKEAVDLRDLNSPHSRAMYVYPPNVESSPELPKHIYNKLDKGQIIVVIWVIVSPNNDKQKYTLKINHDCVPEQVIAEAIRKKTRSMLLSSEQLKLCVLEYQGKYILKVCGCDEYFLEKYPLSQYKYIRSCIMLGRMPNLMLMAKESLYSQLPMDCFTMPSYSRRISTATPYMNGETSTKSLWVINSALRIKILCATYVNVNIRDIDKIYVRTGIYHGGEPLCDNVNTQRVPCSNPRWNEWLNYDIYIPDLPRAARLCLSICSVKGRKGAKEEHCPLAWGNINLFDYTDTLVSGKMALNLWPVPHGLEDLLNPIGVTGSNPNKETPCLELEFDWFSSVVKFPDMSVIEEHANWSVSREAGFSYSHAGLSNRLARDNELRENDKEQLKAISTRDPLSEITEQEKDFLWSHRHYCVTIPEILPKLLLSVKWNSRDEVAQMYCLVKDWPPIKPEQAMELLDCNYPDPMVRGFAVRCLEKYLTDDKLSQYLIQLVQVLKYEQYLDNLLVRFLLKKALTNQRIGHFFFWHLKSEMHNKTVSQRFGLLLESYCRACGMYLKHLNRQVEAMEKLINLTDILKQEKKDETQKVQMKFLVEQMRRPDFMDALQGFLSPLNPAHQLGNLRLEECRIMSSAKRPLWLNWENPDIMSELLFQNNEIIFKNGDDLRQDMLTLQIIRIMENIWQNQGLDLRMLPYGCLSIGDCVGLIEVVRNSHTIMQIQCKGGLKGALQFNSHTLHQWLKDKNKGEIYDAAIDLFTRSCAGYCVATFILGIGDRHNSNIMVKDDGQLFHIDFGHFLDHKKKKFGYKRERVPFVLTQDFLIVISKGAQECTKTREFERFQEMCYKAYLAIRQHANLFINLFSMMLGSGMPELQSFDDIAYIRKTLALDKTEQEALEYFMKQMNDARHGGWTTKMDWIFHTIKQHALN
T1 sequence (P27986 whole entry partner): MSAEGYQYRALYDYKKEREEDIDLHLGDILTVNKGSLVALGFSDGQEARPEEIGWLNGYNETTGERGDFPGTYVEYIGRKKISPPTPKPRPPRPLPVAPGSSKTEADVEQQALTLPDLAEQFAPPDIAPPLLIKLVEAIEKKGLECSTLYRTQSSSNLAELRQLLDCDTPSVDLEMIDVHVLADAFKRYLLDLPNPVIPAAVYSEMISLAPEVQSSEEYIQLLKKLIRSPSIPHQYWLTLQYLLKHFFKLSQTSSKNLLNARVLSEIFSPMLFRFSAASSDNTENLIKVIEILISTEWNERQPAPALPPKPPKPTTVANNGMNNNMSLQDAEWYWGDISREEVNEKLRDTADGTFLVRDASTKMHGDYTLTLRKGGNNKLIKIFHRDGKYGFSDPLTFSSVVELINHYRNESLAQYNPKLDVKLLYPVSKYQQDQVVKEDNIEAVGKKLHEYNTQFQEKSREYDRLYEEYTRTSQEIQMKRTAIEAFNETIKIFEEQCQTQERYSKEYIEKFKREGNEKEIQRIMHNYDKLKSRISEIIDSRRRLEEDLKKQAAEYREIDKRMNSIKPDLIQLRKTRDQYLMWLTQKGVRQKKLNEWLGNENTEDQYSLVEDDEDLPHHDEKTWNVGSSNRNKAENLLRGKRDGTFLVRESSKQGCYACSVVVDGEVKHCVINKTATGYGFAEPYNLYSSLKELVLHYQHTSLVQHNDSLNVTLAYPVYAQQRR

SMILES	IC50 (EGF stimulation)	T47D pAKT S473 HTRF IC50 (H1047R): T47D (H1047R) selectivity over SKBR3 (WT) (selectivity of T47D (H1047R) over SKBR3 (WT) pAKT IC50)	IC50 (1 hr compound, 20 ng/ml EGF 10 min)	T47D pAKT S473 HTRF IC50 (H1047R): T47D (H1047R) selectivity over SKBR3 (WT) (selectivity T47D (H1047R) over SKBR3 (WT), pAKT HTRF)
C=CC(=O)Nc1ccc(C(=O)O)c(NC(C)c2cc(C)cn3c(=O)c(C)c(N4Cc5ccccc5C4)nc23)c1 (stereo not shown) [Compound 1039]	> 2 µM	C (C denotes ≤5-fold)		
Cc1cc(C(C)Nc2cc(C#N)ccc2C(=O)O)c2nc(N3CCOCC3)cc(=O)n2c1 (stereo not shown) [Compound 326]			> 2 µM	C (C denotes ≤5-fold)
